Non-standard residues stand in square brackets, D forms with d. Residues, ends and D or L forms follow the SMILES beside them. *: point of attachment. Lauroyl = CCCCCCCCCCCC(=O)*; NH(CH2)4NH2 = NCCCCN*

Series [1] has as its system human cells Kasumi. Nature of the series: MTT cytotoxicity assay, Kasumi. It is filed as cell-based. The settings on record: 24 h. A digest of the protocol: (§1)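 An MTT-based assay, run as in prior work, gives compound cytotoxicity here. The tested lines undergo routine authentication through morphology and gene/protein expression checks.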
For orientation: Tetrazolium dyes change colour on reduction, which living cells bring about.

Series [2] relates to HepG2 cells. Description: Extracellular and intracellular compound in HepG2 cells (LC-MS). It is filed as in vitro ADME, human. As to conditions: 3 h. The protocol: (§2) Comparing the concentration of compounds (7, 10, 10a) in extracellular and intracellular after the HepG2 cell line dealt with compounds. HepG2 cells were plated in six-well plates at a density of 1.5 × 10^5 cells/well and grew overnight. After cell treated with compounds (5 μg/mL) for 3 h, the compounds were extracted with MeOH for cells culture medium and cells separately as followed the reported method. The compounds were quantified by LC‒MS (5%‒95% ACN in 15 min). The cell numbers of HepG2 with the compounds treatments was determined. […]
(§3) To determine whether the difference in bioactivity of products (with or without Put moiety) is due to variations in cellular uptake, we treated hepatoma cell line HepG2 with compounds 7 (C12 acyl), 10 (C14 acyl), and 10a (C14 acyl and without Put) (Supplementary Fig. 33c). The cells were treated for 3 h, and then culture medium and cells were extracted separately. LC-MS was used to detect and quantify the compounds.
(§4) At lower concentrations (5000 ng/mL, and 10,000 ng in total for each group), and […]
(§5) may be contributing to the differences in antitumor activity (Supplementary Fig. 33b).
(§6) This could be due to differences in the speed of cellu lar uptake or differences in drug metabolism rate, requiring further experimental investigation.

Series [3] concerns human lung adenocarcinoma cell A549. Nature of the series: MTT cytotoxicity assay, A549. Format: cell-based. As to conditions: 24 h. An outline of the steps: (§7)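 Compound cytotoxicity is assessed with the MTT method in human cancer cells and normal 2B lung epithelial cells.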
Series [4] concerns human gastric cancer cell SGC-7901. Description: cells. The settings on record: 24 h. Format: cell-based. An outline of the steps: as §1
The subject of series [5] is human acute lymphoblastic leukemia cells K562. Description: cells. It is filed as cell-based. As to conditions: 24 h. An outline of the steps:
as §7

For series [6], the system named is human breast adenocarcinoma cells MDA-MB-231. Nature of the series: cells. Format: cell-based. The settings on record: 24 h. A digest of the protocol: as §7
The subject of series [7] is human hepatoma cell HepG-2. Description: cells. The settings on record: 24 h. Format: cell-based. An outline of the steps:
as §7

For series [8], the system named is human lung epithelial normal cell 2B. Description: cells. It is filed as cell-based. As to conditions: 24 h. A digest of the protocol: as §7
Series [9] concerns human colon cancer cell HCT-116. Nature of the series: cells. It is filed as cell-based. As to conditions: 24 h. A digest of the protocol:
as §7

Series [10] has as its system human breast adenocarcinoma cells MCF7. Nature of the series: cells. As to conditions: 24 h. Format: cell-based. A digest of the protocol:
as §7

The subject of series [11] is native host DSM 7029. Nature of the series: Inhibition zone test on the native host DSM 7029. The settings on record: same method as for the seven tested strains. Format: cell-based, Schlegelella brevitalea DSM 7029. The text has this: The two human acute lymphoblastic leukemia cells K562 and Kasumi, two human breast adenocarcinoma cells MCF7 and MDA-MB-231, human hepatoma cell HepG-2, human lung adenocarcinoma cell A549, human gastric cancer cell SGC-7901, human colon cancer cell HCT-116, human ovarian cancer cell line SKOV3, or human lung epithelial normal cell 2B were obtained from Beyotime Biotechnology and utilized to test the cytotoxicity of compounds by MTT assays as previous study. The anti-inflammatory effect of the compounds was detected by the influence on the increase in the level of nitric oxide caused by lipopolysaccharide (LPS) based on the classic Griess method. RAW 264.7 cells (Shanghai Institutes for Biological Science) were seeded in 96-well plates and incubated for 24 h. Then, cells were treated with compounds 29, 29a, 31, and 31a (0-80 μM) for 30 min, followed by co-treatment with LPS ([…]) for another 24 h. The Nitric Oxide assay kit with Griess reagents (Beyotime, Lot: S0021, Shanghai, China) was used to examine cellular supernatant nitrite accumulation, which represents cellular NO levels. The OD value of 540 nm absorbance was detected with a microplate reader. Their authentication in the laboratory was performed regularly based on morphology and gene/protein expression. […]

In series [12] the test system is HepG2 cells. Nature of the series: Cell numbers of HepG2 after compound treatment. It is filed as cell-based, human. As to conditions: HepG2, 1.5 × 10^5 cells/well plated, compound 5 μg/mL, 3 h; mean of n = 3. The method, then: as §2, §3, §4, §5, §6

What is called IC50 is the point on the concentration scale where inhibition reaches its midpoint. Read a high IC50 as weaker potency in that assay. `CCCCCCCCCCCC(=O)N[C@H](CCSC)C(=O)N[C@H](CC(N)=O)C(=O)N1CCC[C@H]1C(=O)N[C@H](C(=O)N[C@H](Cc1ccccc1)C(=O)N1CCC[C@H]1C(=O)N[C@@H](Cc1c[nH]c2ccccc12)C(=O)N[C@@H](C(=O)N[C@@H](C)C(=O)N[C@H](C)C(=O)N[C@@H](CO)C(=O)N[C@@H](C)C(=O)NCCCCN)C(C)C)C(C)C` [Compound 7, Glidonin G] (Lauroyl-[dM][dN]PV[dF]PW[dV]A[dA]SA-{NH(CH2)4NH2}): the IC50 in series [1] is 7.93 ± 0.35 µM; in series [3] it was 7.64 ± 1.11 µM; in [4], greater than 20 µM; in series [5] it was 13.5 ± 4.44 µM; in series [6], 4.76 ± 0.79 µM; in [7], 8.3 ± 0.57 µM. Also, the IC50 was 11.7 ± 1.5 µM in series [8], greater than 20 µM in series [9] and greater than 20 µM in series [10]. Further, in series [2] (HepG2, 5000 ng/mL, compared to 10a), the “total quantities (intracellular plus extracellular) in words” value was “lower total quantities”. Besides, the “Intracellular compound, Average” value in [2] (HepG2, six-well plates, 5 μg/mL (10,000 ng in total), cells extracted with MeOH, mean of n = 3) was 13.4894 ng. Moreover, in series [2] (HepG2, six-well plates, 5 μg/mL (10,000 ng in total), culture medium extracted with MeOH, mean of n = 3), the “Extracellular compound, Average” value was 2764.81 ng. In addition, the “inhibition of native host DSM 7029, inhibition zone method” value in [11] is “no inhibition”. Further, in [12], the “The cell numbers, Average” value is 1323333.
